Source: ChEMBL document CHEMBL4732094, “Synthesis of some new benzoxazole derivatives and investigation of their anticancer activities” (Eur J Med Chem, 2021)

Key:
[1] = test system: A549; assay: Cytotoxicity against human A549 cells assessed as cell viability measured after 24 hrs by MTT assay; assay type: functional, cell-based; details: A549, 24 h
[2] = Selectivity index, ratio of IC50 for cytotoxicity against mouse NIH3T3 cells to IC50 for cytotoxicity against human MCF7 cells; assay type: toxicity, cell-based; details: NIH3T3 cells versus MCF7 cells, read-out: Ratio IC50
[3] = test system: HT-29; assay: Cytotoxicity against human HT-29 cells assessed as cell viability measured after 24 hrs by MTT assay; assay type: functional, cell-based; details: HT-29, 24 h
[4] = test system: NIH3T3; assay: Cytotoxicity against mouse NIH3T3 cells assessed as cell viability measured after 24 hrs by MTT assay; assay type: cell-based; details: NIH3T3, 24 h
[5] = test system: C6; assay: Induction of apoptosis in rat C6 cells assessed as apoptotic cells at IC50 concentration measured after 24 hrs by Annexin V-FITC/PI staining based flow cytometry method relative to control; assay type: functional
[6] = test system: C6; assay: Cytotoxicity against rat C6 cells assessed as cell viability measured after 24 hrs by MTT assay; assay type: functional, cell-based; details: C6, 24 h
[7] = test system: HT-29; assay: Induction of apoptosis in human HT-29 cells assessed as viable cells at IC50 concentration measured after 24 hrs by Annexin V-FITC/PI staining based flow cytometry method (reference value: 90.3%); assay type: functional
[8] = test system: C6; assay: Inhibition of DNA synthesis in rat C6 cells assessed as reduction in cell proliferation measured after 24 to 48 hrs by BrdU proliferation assay; assay type: functional, cell-based; details: time 24-48 hrs
[9] = test system: MCF7; assay: Cytotoxicity against human MCF7 cells assessed as cell viability measured after 24 hrs by MTT assay; assay type: functional, cell-based; details: MCF7, 24 h
[10] = test system: HepG2; assay: Cytotoxicity against human HepG2 cells assessed as cell viability measured after 24 hrs by MTT assay; assay type: functional, cell-based; details: HepG2, 24 h
[11] = test system: HT-29; assay: Inhibition of DNA synthesis in human HT-29 cells assessed as reduction in cell proliferation measured after 24 to 48 hrs by BrdU proliferation assay; assay type: functional, cell-based; details: time 24-48 hrs
[12] = Selectivity index, ratio of IC50 for cytotoxicity against mouse NIH3T3 cells to IC50 for cytotoxicity against human HT-29 cells; assay type: toxicity, cell-based; details: NIH3T3 cells versus HT-29 cells, read-out: Ratio IC50
[13] = test system: HT-29; assay: Induction of apoptosis in human HT-29 cells assessed as necrotic cells at IC50 concentration measured after 24 hrs by Annexin V-FITC/PI staining based flow cytometry method (reference value: 7.2%); assay type: functional
[14] = test system: HT-29; assay: Induction of apoptosis in human HT-29 cells assessed as late apoptotic cells at IC50 concentration measured after 24 hrs by Annexin V-FITC/PI staining based flow cytometry method (reference value: 1.5%); assay type: functional
[15] = Selectivity index, ratio of IC50 for cytotoxicity against mouse NIH3T3 cells to IC50 for cytotoxicity against rat C6 cells; assay type: toxicity, cell-based; details: NIH3T3 cells versus C6 cells, read-out: Ratio IC50
[16] = test system: HT-29; assay: Induction of apoptosis in human HT-29 cells assessed as early apoptotic cells at IC50 concentration measured after 24 hrs by Annexin V-FITC/PI staining based flow cytometry method (reference value: 1.1%); assay type: functional
[17] = Selectivity index, ratio of IC50 for cytotoxicity against mouse NIH3T3 cells to IC50 for cytotoxicity against human HepG2 cells; assay type: toxicity, cell-based; details: NIH3T3 cells versus HepG2 cells, read-out: Ratio IC50
[18] = Selectivity index, ratio of IC50 for cytotoxicity against mouse NIH3T3 cells to IC50 for cytotoxicity against human A549 cells; assay type: toxicity, cell-based; details: NIH3T3 cells versus A549 cells, read-out: Ratio IC50
[19] = test system: HepG2; assay: Induction of apoptosis in human HepG2 cells assessed as early apoptotic cells at IC50 concentration measured after 24 hrs by Annexin V-FITC/PI staining based flow cytometry method (reference value: 0.9%); assay type: functional
[20] = test system: MCF7; assay: Induction of apoptosis in human MCF7 cells assessed as early apoptotic cells at IC50 concentration measured after 24 hrs by Annexin V-FITC/PI staining based flow cytometry method (reference value: 2.2%); assay type: functional
[21] = test system: MCF7; assay: Induction of apoptosis in human MCF7 cells assessed as viable cells at IC50 concentration measured after 24 hrs by Annexin V-FITC/PI staining based flow cytometry method (reference value: 94.9%); assay type: functional
[22] = test system: HepG2; assay: Induction of apoptosis in human HepG2 cells assessed as late apoptotic cells at IC50 concentration measured after 24 hrs by Annexin V-FITC/PI staining based flow cytometry method (reference value: 8.7%); assay type: functional
[23] = test system: MCF7; assay: Inhibition of DNA synthesis in human MCF7 cells assessed as reduction in cell proliferation measured after 24 to 48 hrs by BrdU proliferation assay; assay type: functional, cell-based; details: time 24-48 hrs
[24] = test system: HepG2; assay: Inhibition of DNA synthesis in human HepG2 cells assessed as reduction in cell proliferation measured after 24 to 48 hrs by BrdU proliferation assay; assay type: functional, cell-based; details: time 24-48 hrs
[25] = test system: HepG2; assay: Induction of apoptosis in human HepG2 cells assessed as necrotic cells at IC50 concentration measured after 24 hrs by Annexin V-FITC/PI staining based flow cytometry method (reference value: 4.6%); assay type: functional
[26] = test system: MCF7; assay: Induction of apoptosis in human MCF7 cells assessed as late apoptotic cells at IC50 concentration measured after 24 hrs by Annexin V-FITC/PI staining based flow cytometry method (reference value: 1.8%); assay type: functional
[27] = test system: HepG2; assay: Induction of apoptosis in human HepG2 cells assessed as viable cells at IC50 concentration measured after 24 hrs by Annexin V-FITC/PI staining based flow cytometry method (reference value: 87.8%); assay type: functional
[28] = test system: MCF7; assay: Induction of apoptosis in human MCF7 cells assessed as necrotic cells at IC50 concentration measured after 24 hrs by Annexin V-FITC/PI staining based flow cytometry method (reference value: 1%); assay type: functional
[29] = Drug metabolism in human HepG2 cells assessed as oxidative dehalogenation after 24 hrs by LCMS-IT-TOF analysis; assay type: ADME, cell-based; details: hepg2, 24 h
[30] = Drug metabolism in human HepG2 cells assessed as amine metabolite formation after 24 hrs by LCMS-IT-TOF analysis; assay type: ADME, cell-based; details: hepg2, 24 h

Row | SMILES | IC50 [1] [µM] | selectivity ratio [2] | IC50 [3] [µM] | IC50 [4] [µM] | Activity [5] [%] | IC50 [6] [µM] | Activity [7] [%] | inhibition [8] | IC50 [9] [µM] | IC50 [10] [µM] | inhibition [11] | selectivity ratio [12] | selectivity ratio [15] | selectivity ratio [17] | selectivity ratio [18] | Activity [19] [%] | Activity [22] [%] | inhibition [24] | Activity [25] [%] | Activity [27] [%] | further results
1 | Cc1ccc2oc(-c3ccc(NC(=O)CN4CCN(CCN(C)C)CC4)cc3)nc2c1 | 3.66 | 1.22 | 1.79 | 28.9 | 19.3 | 1.63 | 76 | Dose-dependent effect | 23.7 | 1.27 | Dose-dependent effect | 16.2 | 17.8 | 22.8 | 7.9 | – | – | – | – | – | Activity [13]: 0.4%; Activity [14]: 8.5%; Activity [16]: 15%
2 | CN(C)CCCN1CCN(CC(=O)Nc2ccc(-c3nc4cc(Cl)ccc4o3)cc2)CC1 | 4.32 | 15.6 | 1.64 | 25.8 | 13.6 | 0.91 | 85.5 | Dose-dependent effect | 1.65 | 1.25 | Dose-dependent effect | 15.7 | 28.3 | 20.6 | 5.96 | 8.3 | 27.9 | Dose-dependent effect | 1.1 | 62.6 | Activity [20]: 23.7%; Activity [21]: 25.9%; inhibition [23]: Dose-dependent effect; Activity [13]: 0.6%; Activity [14]: 7.4%; Activity [26]: 46.4%; Activity [28]: 3.9%; Drug metabolism [29]: Metabolite_Detected; Activity [16]: 6.5%; Drug metabolism [30]: Metabolite_Detected
3 | CN(C)CCN1CCN(CC(=O)Nc2ccc(-c3nc4cc(Cl)ccc4o3)cc2)CC1 | 7.1 | 3.62 | 4.47 | 28.7 | 10.7 | 1.03 | – | Dose-dependent effect | 7.92 | 2.64 | – | 6.41 | 27.8 | 10.9 | 4.04 | 3.7 | 10.3 | Dose-dependent effect | 0.8 | 85.2 | Drug metabolism [29]: Metabolite_Detected; Drug metabolism [30]: Metabolite_Detected
4 | COc1cccc2c1C(=O)c1c(O)c3c(c(O)c1C2=O)C[C@@](O)(C(=O)CO)C[C@@H]3O[C@H]1C[C@H](N)[C@H](O)[C@H](C)O1 [DOXORUBICIN] | 10.8 | – | 16.3 | – | 35.7 | 25.6 | 88 | Dose-dependent effect | – | 18 | Dose-dependent effect | – | – | – | – | 0.9 | 21.4 | Dose-dependent effect | 4.2 | 73.6 | Activity [20]: 1%; Activity [21]: 42.9%; inhibition [23]: Dose-dependent effect; Activity [13]: 3.5%; Activity [14]: 6.6%; Activity [26]: 49.3%; Activity [28]: 6.8%; Activity [16]: 1.9%
5 | Cc1cc(-c2nc3ccccc3o2)ccc1NC(=O)CN1CCN(CCCN(C)C)CC1 | 22.1 | 2.97 | 15.5 | 33.5 | – | 38.7 | – | – | 11.3 | 2.16 | – | 2.17 | 0.86 | 15.5 | 1.52 | 5 | 16.7 | Dose-dependent effect | 0.8 | 77.5 | –
6 | CN(C)CCN1CCN(CC(=O)Nc2ccc(-c3nc4cc(F)ccc4o3)cc2)CC1 | 16.6 | 3.46 | 8.19 | 72 | 46 | 4.39 | – | Dose-dependent effect | 20.8 | 18.8 | – | 8.79 | 16.4 | 3.84 | 4.33 | – | – | – | – | – | –
